Where two headings read alike, the source gives them in different places.
What was measured:
T1R1/T1R3 receptor [1] = molecular target: T1, T1R1/T1R3 receptor (Felis catus, UniProt E3UMS2); experiment: Activation of T1R1/T1R3 receptor by transmembrane compounds and nucleotide derivatives, conducted as in Examples 1, 2 and 5 (Example 7); assay type: cell-based, cat; settings: for Activity: modulation of T1R1/T1R3
Text: Methods: HEK293 cells that stably express T1R3 and inducibly express T1R1 were exposed to nucleotide derivatives alone to activate the umami receptor. Activation of the T1R1/T1R3 receptor was detected by a change in intracellular calcium levels using a calcium sensitive fluorescent dye. Cells that express T1R3 but not T1R1 were used as a control. A FLIPR® Tetra or a FlexStation® 3 was used for data capture.
(§1) Methods: HEK293 cells that stably express T1R3 and inducibly express T1R1 were exposed to nucleotide derivatives alone or in combination with one or more amino acids and/or one or more nucleotides to activate the umami receptor. Activation of the T1R1/T1R3 receptor was detected by a change in intracellular calcium levels using a calcium sensitive fluorescent dye and/or a luminescent reporter system. Cells that express T1R3 but not T1R1 were used as a control. A FLIPR® Tetra or a FlexStation® 3 was used for data capture.
Methods: HEK293 cells that stably express T1R3 and inducibly express T1R1 were exposed to transmembrane compounds alone or in combination with one or more amino acids and/or one or more nucleotides to activate the umami receptor. Activation of the T1R1/T1R3 receptor was detected by a change in intracellular calcium levels using a calcium sensitive fluorescent dye. Cells that express T1R3 but not T1R1 were used as a control. A FLIPR® Tetra or a FlexStation® 3 was used for data capture.
In each experiment, serial dilutions of up to 10 mM of the transmembrane compound were added to the T1R1/T1R3-expressing cells.

cat T1R1/T1R3 receptor = cat T1R1/T1R3 receptor (Felis catus, UniProt E3UMS2); experiment: cell-based; assay type: cell-based; settings: for Max. resp. % of IMP: hek293 cells
Text: as §1

T1R1/T1R3 receptor [2] = molecular target: T1, T1R1/T1R3 receptor; experiment: Activation of T1R1/T1R3 receptor by transmembrane compounds alone or with alanine, IMP, GMP, phenylalanine; HEK293 cells, calcium fluorescence (Example 5); assay type: cell-based, cat; settings: read-out: EC50 (effect with 0.2 mM IMP); Table 20 controls; in the presence of 0.2 mM IMP
Summary of the method: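 HEK293 cells stably expressing feline T1R3 with inducible T1R1 treated with serial dilutions (up to 10 mM) of transmembrane compounds, alone or combined with amino acids and/or nucleotides. Activation read as intracellular calcium change via calcium-sensitive fluorescent dye; T1R3-only cells served as control.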

CCCCc1nn(CC(=O)N2CCCC2)c(=O)n1Cc1ccccc1 [4-benzyl-3-butyl-1-(2-oxo-2-(pyrrolidin-1-yl)ethyl)-1H-1,2,4-triazol-5(4H)-one]
Max resp ΔF/F +Alanine (20 mM) (T1R1/T1R3 receptor [1]): 0.8900 ΔF/F | Thres +Alanine (20 mM) (T1R1/T1R3 receptor [1]): 0.3 mM | Max resp % of Ala +IMP (0.2 mM) (T1R1/T1R3 receptor [1]; +IMP (0.2 mM)): 193.2 % of Ala | Max resp ΔF/F +IMP (0.2 mM) (T1R1/T1R3 receptor [1]; +IMP (0.2 mM)): 1.5025 ΔF/F | Thres +IMP (0.2 mM) (T1R1/T1R3 receptor [1]; +IMP (0.2 mM)): 0.1 mM | EC50 (T1R1/T1R3 receptor [1]; compound alone in buffer, read-out: EC50 +buffer (alone)): > 600 µM | Max resp % of IMP +Alanine (20 mM) (T1R1/T1R3 receptor [1]; hek293 cells): 129.9 % of IMP | Activity (T1R1/T1R3 receptor [1]): active | EC50 (T1R1/T1R3 receptor [1]; read-out: EC50 +Alanine (20 mM)): > 600 µM | EC50 (T1R1/T1R3 receptor [1]; read-out: EC50 +Alanine (20 mM) + IMP (0.2 mM)): > 600 µM | EC50 (T1R1/T1R3 receptor [1]; read-out: EC50 +IMP (0.2 mM), +IMP (0.2 mM)): > 600 µM

O=P(O)(O)OP(=O)(O)OP(=O)(O)OC[C@H]1O[C@@H](n2cnc3c(Cl)ncnc32)[C@H](O)[C@@H]1O [6-Chloropurine riboside-5′-O-triphosphate]
Max resp. (ΔF/F) (cat T1R1/T1R3 receptor): 0.345 ΔF/F | Threshold (cat T1R1/T1R3 receptor): 0.01 mM | Max. resp. % of IMP (cat T1R1/T1R3 receptor): 50.4 % of IMP | Max resp % of IMP +Alanine (20 mM) (T1R1/T1R3 receptor [1]; +Alanine (20 mM)): 50.4 % of IMP | Max resp ΔF/F +Alanine (20 mM) (T1R1/T1R3 receptor [1]; +Alanine (20 mM)): 0.3450 ΔF/F | Thres +Alanine (20 mM) (T1R1/T1R3 receptor [1]; +Alanine (20 mM)): 0.01 mM | Max resp % of Ala +IMP (0.2 mM) (T1R1/T1R3 receptor [1]; +IMP (0.2 mM)): 30.2 % of Ala | Max resp ΔF/F +IMP (0.2 mM) (T1R1/T1R3 receptor [1]; +IMP (0.2 mM)): 0.2350 ΔF/F | Thres +IMP (0.2 mM) (T1R1/T1R3 receptor [1]; +IMP (0.2 mM)): 0.003 mM | Activity (T1R1/T1R3 receptor [1]): active

Nc1nc2c(ncn2[C@@H]2O[C@H](COP(=O)(O)OP(=O)(O)O)[C@@H](O)[C@H]2O)c(=S)[nH]1 [6-Thioguanosine-5′-O-diphosphate]
Max resp. (ΔF/F) (cat T1R1/T1R3 receptor): 1.047 ΔF/F | Threshold (cat T1R1/T1R3 receptor): 0.03 mM | Max. resp. % of IMP (cat T1R1/T1R3 receptor): 152.8 % of IMP | EC50 (cat T1R1/T1R3 receptor; in the presence of 20 mM alanine, read-out: EC50- with Ala): 0.18 ± 0.02 mM | Max resp ΔF/F +Alanine (20 mM) (T1R1/T1R3 receptor [1]): 1.0470 ΔF/F | Thres +Alanine (20 mM) (T1R1/T1R3 receptor [1]): 0.03 mM | Max resp % of Ala +IMP (0.2 mM) (T1R1/T1R3 receptor [1]; +IMP (0.2 mM)): 9.3 % of Ala | Max resp ΔF/F +IMP (0.2 mM) (T1R1/T1R3 receptor [1]; +IMP (0.2 mM)): 0.0720 ΔF/F | Max resp % of IMP +Alanine (20 mM) (T1R1/T1R3 receptor [1]; hek293 cells): 152.8 % of IMP | Activity (T1R1/T1R3 receptor [1]): active

Nc1nc2c(ncn2[C@@H]2O[C@H](COP(=O)(O)O)[C@@H](O)[C@H]2O)c(=O)[nH]1 [Guanosine monophosphate (GMP), guanosine monophosphate, reference compound]
Max resp % of IMP +Alanine (20 mM) (T1R1/T1R3 receptor [1]; +Alanine (20 mM)): 114.6 % of IMP | Max resp ΔF/F +Alanine (20 mM) (T1R1/T1R3 receptor [1]; +Alanine (20 mM)): 0.7850 ΔF/F | Thres +Alanine (20 mM) (T1R1/T1R3 receptor [1]; +Alanine (20 mM)): 0.01 mM

C[C@H](N)C(=O)O [L-Alanine, reference compound]
EC50 (cat T1R1/T1R3 receptor; read-out: EC50): 13.6 ± 4.3 mM | EC50 (T1R1/T1R3 receptor [2]): 13.6 ± 4.3 mM | Max resp % of Ala +IMP (0.2 mM) (T1R1/T1R3 receptor [1]; +IMP (0.2 mM)): 100.0 % of Ala | Max resp ΔF/F +IMP (0.2 mM) (T1R1/T1R3 receptor [1]; +IMP (0.2 mM)): 0.7775 ΔF/F | Thres +IMP (0.2 mM) (T1R1/T1R3 receptor [1]; +IMP (0.2 mM)): 3.0 mM

N[C@@H](CS)C(=O)O [L-Cysteine, reference compound]
Max resp % of Ala +IMP (0.2 mM) (T1R1/T1R3 receptor [1]; +IMP (0.2 mM)): 74.6 % of Ala | Max resp ΔF/F +IMP (0.2 mM) (T1R1/T1R3 receptor [1]; +IMP (0.2 mM)): 0.5800 ΔF/F | Thres +IMP (0.2 mM) (T1R1/T1R3 receptor [1]; +IMP (0.2 mM)): 10.0 mM

N[C@@H](Cc1c[nH]cn1)C(=O)O [L-Histidine, L-histidine, reference compound]
Max resp % of Ala +IMP (0.2 mM) (T1R1/T1R3 receptor [1]; +IMP (0.2 mM)): 36.3 % of Ala | Max resp ΔF/F +IMP (0.2 mM) (T1R1/T1R3 receptor [1]; +IMP (0.2 mM)): 0.2825 ΔF/F | Thres +IMP (0.2 mM) (T1R1/T1R3 receptor [1]; +IMP (0.2 mM)): 10.0 mM

CSCC[C@H](N)C(=O)O [L-Methionine, reference compound]
Max resp ΔF/F +IMP (0.2 mM) (T1R1/T1R3 receptor [1]): 0.3500 ΔF/F | Thres +IMP (0.2 mM) (T1R1/T1R3 receptor [1]): 30.0 mM | Max resp % of Ala +IMP (0.2 mM) (T1R1/T1R3 receptor [1]; hek293 cells): 45.0 % of Ala

N[C@@H](Cc1ccccc1)C(=O)O [L-Phenylalanine, reference compound]
Max resp % of Ala +IMP (0.2 mM) (T1R1/T1R3 receptor [1]; +IMP (0.2 mM)): 75.9 % of Ala | Max resp ΔF/F +IMP (0.2 mM) (T1R1/T1R3 receptor [1]; +IMP (0.2 mM)): 0.5900 ΔF/F | Thres +IMP (0.2 mM) (T1R1/T1R3 receptor [1]; +IMP (0.2 mM)): 0.1 mM

— patent US11185100B2 (priority 2014, dated 2021)
